Results on 4 compounds are retold here after patent US20210002209A1, “NOVEL CRYSTALLINE FORMS OF TAMIBAROTENE FOR TREATMENT OF CANCER” (TRANSGENEX NANOBIOTECH, INC., priority 2018, published 2021).

In brackets after ≈: the same amount, converted by molar mass. Like-named read-outs stand apart in the source and are kept apart here. Where only a bound is given, the exact number is not on record here.

Series [1] relates to SAOS. The experiment in a line: IC50 studies, monolayer cell culture assay (CellTiter-Glo cell viability, 72 hours). The format is cell-based. The conditions noted are these: sarcoma. The procedure: (§1) Cancer cell lines listed in Table 1, were subjected for testing anti-cancer potency or the half maximal inhibitory concentration (IC50) of tamibarotene molecular complexes.
(§2) The SK-ES-1, U-2 OS, and SAOS-2 cells were cultured in a growth medium that is ATCC-formulated McCoy's 5a Medium Modified, Catalog No. 30-2007. The PC-3, PANC-1, SK-Mel-5, A549, H460, and H1299 were cultured in a growth medium that is ATCC-formulated Dulbecco's Modified Eagle's Medium (DMEM), Catalog No. 30-2002. The cells were seeded on 96-well microtiter plates with 3500 cells per well and cultured in an incubator (Model 3120, Thermo Scientific, USA) with a constant temperature at 37° C. and 5% carbon dioxide (CO2) gas for 24 hours.
(§3) The new tamibarotene molecular complexes were made into a series with concentration of 200 nM to 40 nM, 8 nM, 1.6 nM, 0.32 nM, and 0.064 nM. […]
(§4) The treated cells in the 96 well plate was then further cultured at the same conditions for 72 hours and then subjected for a final cell viability measurement. The measurement used a homogeneous method to determine the number of metabolically active cells presented in each of treatments. A testing reagent for the measurement is a mixture solution of the CellTiter-Glo® 2.0 reagent (CTG, Promega Cat #G9243, USA) and growth medium in 1:1 ratio in this respect.
(§5) The 96-well plate with the new molecular complex treated cells was taken out from incubator after the 72 hours of incubation, and the treatment solution in each well was removed using a multichannel pipette, and 100 μl of the testing reagent were added into each well. The plate was then placed on a plate shaker for 15 min. The plate was covered with a piece of aluminum foil to protect the CTG luminescence during the shaking time.
(§6) Then 90 μl of the 100 μl testing reagent were transferred into an opaque-walled 96-well plate for the CTG luminescence reading on a plate reader (SynergyH4 Hybrid Reader, Biotek, USA). The luminescence intensity of each treatment was positively correlated with the number of cells survived during the treatments.
(§7) All the treatment data was normalized by comparing with the control samples that had only growth medium without any molecular complexes. The half maximal inhibitory concentration (IC50) data was calculated using the nonlinear regression model and dose-responses (inhibition) curve built in the software. Each of treatments was performed in three replications each time and repeated three times for validation. The IC50 average […] (Avg) and standard deviation (STDV) were calculated based on the three replications.
Background: In ATP-based viability assays light output follows the ATP content of the culture.

Series [2] deals with PC-3. The series is described as above. The format is cell-based. As to conditions: Homo sapiens, PC-3, prostate. The procedure:
as §1, §2, §3, §4, §5, §6, §7

For series [3], the system named is SK-ES-1. The description is as above. As to conditions: Homo sapiens, SK-ES1, SK-ES-1, sarcoma. Format: cell-based. The procedure:
as §1, §2, §3, §4, §5, §6, §7

For series [4], the system named is SK-Mel-5. The description is as above. Format: cell-based. As to conditions: Homo sapiens, SK-Mel-5, skin. How it is done:
as §1, §2, §3, §4, §5, §6, §7

For series [5], the system named is H1299. The series is described as above. The format is cell-based. The procedure: as §1, §2, §3, §4, §5, §6, §7
For series [6], the system named is U-2 OS. The series is described as above. Format: cell-based. As to conditions: Homo sapiens, U2OS, sarcoma. How it is done: as §1, §2, §3, §4, §5, §6, §7
Series [7] deals with H460. Described as above. Format: cell-based. How it is done:
as §1, §2, §3, §4, §5, §6, §7

For series [8], the system named is A549. The series is described as above. The format is cell-based. The conditions noted are these: A549, lung. How it is done: as §1, §2, §3, §4, §5, §6, §7
For series [9] the following is noted: cited from earlier work.
[10] abbreviates: Test I, read-out: IC50 Test(I) Avg.
Setting [11] is: Test II, read-out: IC50 Test (II) Avg.
The mark [12] stands for this setting: Test III, read-out: IC50 Test (III) Avg.
Where [13] appears, read: H1299, lung, Test I, read-out: IC50 Test(I) Avg.
Where [14] appears, read: H1299, lung, Test II, read-out: IC50 Test (II) Avg.
[15] abbreviates: H1299, lung, Test III, read-out: IC50 Test (III) Avg.
Where [16] appears, read: H460, lung, Test I, read-out: IC50 Test(I) Avg.
Setting [17] is: H460, lung, Test II, read-out: IC50 Test (II) Avg.
The mark [18] stands for this setting: H460, lung, Test III, read-out: IC50 Test (III) Avg.

By IC50 is commonly meant the concentration at which inhibition is half-maximal.

`CC1(C)CCC(C)(C)c2cc(NC(=O)c3ccc(C(=O)O)cc3)ccc21` [TAM, 4-[(5,5,8,8-tetramethyl-5,6,7,8-tetrahydronaphthalen-2-yl)carbamoyl]benzoic acid, reference compound]: the half-maximal inhibitory concentration (IC50) in series [1] (setting [10]) was 55.4 µM; in series [1] (setting [11]), 46.5 µM; in [1] (setting [12]), > 100 µM; in [2] (setting [10]) it was > 100 µM; in series [2] (setting [11]), > 100 µM; in [2] (setting [12]), > 100 µM. The IC50 was > 100 µM in series [3] (setting [10]); 73.2 µM in series [3] (setting [11]); 72.5 µM in series [3] (setting [12]); > 100 µM in series [4] (setting [10]); > 100 µM in [4] (setting [11]); > 100 µM in [4] (setting [12]). The IC50 was 78.9 µM in series [5] (Homo sapiens, NCI-H1299, H1299, lung, Test I, read-out: IC50 Test(I) Avg); 67.3 µM in series [5] (Homo sapiens, NCI-H1299, H1299, lung, Test II, read-out: IC50 Test (II) Avg); 83 µM in [5] (Homo sapiens, NCI-H1299, H1299, lung, Test III, read-out: IC50 Test (III) Avg); > 100 µM in [6] (setting [10]); 77.7 µM in series [6] (setting [11]); 69.7 µM in series [6] (setting [12]). In addition, the IC50 in series [7] (Homo sapiens, NCI-H460, H460, lung, Test I, read-out: IC50 Test(I) Avg) came out at 69.3 µM; in series [7] (Homo sapiens, NCI-H460, H460, lung, Test II, read-out: IC50 Test (II) Avg), 58.3 µM; in series [7] (Homo sapiens, NCI-H460, H460, lung, Test III, read-out: IC50 Test (III) Avg) it was 67.1 µM; in [8] (Homo sapiens, Test I, read-out: IC50 Test(I) Avg) it was 59.9 µM; in series [8] (Homo sapiens, Test II, read-out: IC50 Test (II) Avg) it was 60.6 µM; in [8] (Homo sapiens, Test III, read-out: IC50 Test (III) Avg) it was 57.8 µM. The “solubility in DMF, methanol, ethanol, DMSO, and other organic solvents” value in [9] is given as “soluble”. For the same compound, the “solubility in acetonitrile, water, and various other buffer solutions” value in [9] (pH 3~7, from CN101200435 (B)) is on record as “insoluble”. The water solubility in series [9] (water, drug bank) was 0.575 µg/mL (≈ 1.64 µM).

On to `CC1(C)CCC(C)(C)c2cc(NC(=O)c3ccc(C(=O)O)cc3)ccc21.O=C(O)c1ccccc1-c1ccccc1C(=O)O` [TAM-diphenic acid], for which the IC50 is 40.8 µM in series [5] (setting [13]); 41.4 µM in series [5] (setting [14]); 39.9 µM in series [5] (setting [15]); 35 µM in series [7] (setting [16]); 34.7 µM in [7] (setting [17]); 32.3 µM in series [7] (setting [18]). The half-inhibitory concentration (IC50) in [8] (setting [10]) came to 21.7 µM; in [8] (setting [11]) it was 38.9 µM; in [8] (setting [12]) it was 26.6 µM.

In the case of `CC1(C)CCC(C)(C)c2cc(NC(=O)c3ccc(C(=O)O)cc3)ccc21.O=C(O)c1ccc(-c2ccccc2)cc1` [TAM-biphenyl-4-carboxylic acid], the IC50 in [1] (setting [10]) is 43.5 µM; in series [1] (setting [11]), 37.1 µM; in [1] (setting [12]) it was > 100 µM; in series [5] (setting [13]) it was 65.5 µM; in [5] (setting [14]), 59.8 µM; in series [5] (setting [15]), 65.3 µM. Also, the 50% inhibitory concentration (IC50) came to 56 µM in [7] (setting [16]); 51.7 µM in series [7] (setting [17]); 55.2 µM in [7] (setting [18]); 49.3 µM in series [8] (setting [10]); 41.3 µM in [8] (setting [11]); 46.3 µM in series [8] (setting [12]).

Consider `CC1(C)CCC(C)(C)c2cc(NC(=O)c3ccc(C(=O)O)cc3)ccc21.NC(=O)c1cccnc1` [TAM-nicotinamide], for which the IC50 in [5] (setting [13]) turned out to be 49.7 µM; in [5] (setting [14]), 55.9 µM; in series [5] (setting [15]) it was 53.9 µM; in series [7] (setting [16]) it was 56.6 µM; in [7] (setting [17]) it was 51.1 µM; in [7] (setting [18]), 50.3 µM. Also, the IC50 was 56.6 µM in series [8] (setting [10]), 59.1 µM in series [8] (setting [11]) and 49.8 µM in series [8] (setting [12]).
